Reference: patent US20130217735A1, “FUNGICIDAL COMPOSITIONS AND METHODS OF USE” (Agri-Food and BioSciences Institute, priority 2010, published 2013)
Where two headings read alike, the source gives them in different places.

Experiments:
Phoma exigua = test: Example 7 sensitivity testing of potato tuber pathogens to thiabendazole derivatives; type: cell-based; conditions: isolate Phoma exigua 9.1, Trial B
Protocol: (§1) In vitro tests of the IL thiabendazolium docusate were performed in comparison to the neutral fungicide using selected isolates of Fusarium spp., the cause of potato dry rot. F. coeruleum and F. culmorum are sensitive to thiabendazole whereas isolates of F. sambucinum are frequently resistant. Isolates of Phoma spp., the cause of gangrene, and Phytophthora erythroseptica, the cause of pink rot, were also tested. All except F. sambucinum ex SASA were isolated in a laboratory. F. sambucinum ex SASA was supplied by SASA (Science and Advice for Scottish Agriculture, Roddinglaw Road, Edinburgh, EH12 9F, UK).
(§2) In each test three replicate plates for each organism per concentration were used and tests were repeated at least once.

F. sambucinum = test: as above; type: cell-based; conditions: Trial B; for inhibition at 25 µM / inhibition at 250 µM: Fusarium sambucinum, read-out: Inhibition (%) of mycelial growth
Protocol: as §1, §2

F. culmorum [1] = test: as above; type: cell-based; conditions: isolate F. culmorum P13, Trial B
Protocol: as §1, §2

[2] = test system: Phytophthora erythroseptica; test: as above; type: cell-based; conditions: for Inhibition (%) of mycelial growth / inhibition at 25 µM / inhibition at 250 µM: Trial B; for inhibition at 25 µM / inhibition at 250 µM: Phytophthora erythroseptica, read-out: Inhibition (%) of mycelial growth
Protocol: as §1, §2

Phoma foveata = test: as above; type: cell-based; conditions: isolate Phoma foveata BL2 05 T3, Trial B
Protocol: as §1, §2

F. coeruleum [3] = test: as above; type: cell-based; conditions: Trial B; for inhibition at 25 µM / inhibition at 250 µM: read-out: Inhibition (%) of mycelial growth
Protocol: as §1, §2

F. coeruleum [4] = test: Example 5 agar plate mycelial growth test of TBZ derivatives; conditions: Trial A; for Inhibition (%) of mycelial growth: isolate F. coeruleum ex B7/06 T8
Protocol: (§3) Both TBZ docusate and TBZ stearate were tested at final concentrations of 250 μm and 25 μm in agar. To prepare the TBZ docusate stock solution for 250 μm, 0.155 g of TBZ docusate prepared according to Trial A was added to a 10 mL volumetric flask and was dissolved in 10 mL of ethanol. The solution was mixed thoroughly. To prepare the TBZ docusate stock solution for 25 μm, 1 ml of the above stock solution was pipetted into a second 10 mL flask and 10 mL ethanol was added. The solution was mixed thoroughly. To prepare the TBZ stearate stock solution for 250 μm, 0.121 g of TBZ stearate was added to a 10 mL volumetric flask and was dissolved in 10 mL ethanol. The solution was mixed thoroughly. To prepare the TBZ stearate stock solution for 25 μm, 1 mL of the 250 μm TBZ stearate stock solution was pipetted into a second 10 mL flask and 10 mL ethanol was added. The solution was mixed thoroughly.
(§4) The agar was prepared and autoclaved. Potato dextrose agar (PDA) was used for the Fusarium species and Phytophthora erythroseptica and malt agar was used for the Phoma species. The agar was allowed to cool to 50° C. Each of the stock solutions was added to the agar at the rate of 10 mL stock solution per liter of agar to give the two final concentrations, for both TBZ stearate and docusate, in agar. Also prepared were a 1% ethanol control (10 mL per liter of agar) and an untreated agar as a second control. The plates were prepared in triplicate for each concentration.
(§5) For each pathogen isolate tested, 3 plates of 250 μm/1, 3 plates of 25 μm/1, 3 plates of 1% ethanol, and 3 plates of untreated agar were inoculated using an agar plug cut with a no. 3 cork borer from the margin of an actively-growing culture on agar. The plates were incubated at an appropriate temperature (usually 18-20° C.) in darkness. The growth rate was monitored and assessed after 5-7 days. The growth was assessed by measuring colony diameters minus plug (two measurements at right-angles) per plate. The percent reduction was calculated with respect to the control.
(§6) Pure thiabendazole (TBZ; 0.5 g) obtained from MSD Agvet (Rahway, N.J.) was dissolved in water (10 mL) by adding the minimum required volume (c. 0.5 mL) of hypophosphorous acid and heating gently with stirring, then made up to 100 mL with water to give a stock solution (25 mM). TBZ docusate (0.155 g) or TBZ stearate (0.121 g) was dissolved in ethanol (100 ml) to give stock solutions (25 mM). A ten-fold dilution of each of these stock solutions was prepared (in water for TBZ and in ethanol for TBZ docusate and stearate). […] In addition, agar with 1% v/v ethanol and unamended agar was prepared (ethanol and unamended controls). The agar was poured into Petri plates (9 cm) and allowed to set.
(§7) Isolates of the appropriate potato tuber pathogens were grown on PDA for Fusarium spp. and Phytophthora erythroseptica or on MA for Phoma spp. Each isolate to be tested was inoculated onto three replicate plates of the two concentrations of each compound and onto ethanol and unamended agar controls using plugs (6 mm diameter) cut from the margins of actively growing cultures. Plates were incubated in darkness at 20° C. and mycelial growth measured (two measurements at right-angles for each plate) after 5-7 days (depending on the growth rates).

P. erythroseptica = test: as above; conditions: Trial A; for Inhibition (%) of mycelial growth: isolate P. erythroseptica BL2/08 P31
Protocol: as §3, §4, §5, §6, §7

P. foveata = test: as above; conditions: Trial A; for Inhibition (%) of mycelial growth: isolate P. foveata BL2 05 T3
F. culmorum [5] = test: as above; type: cell-based; conditions: isolate F. culmorum P13, Trial A
F. sulphureum = test: as above; conditions: 5-7 days, TBZ docusate Trial A; for Inhibition (%) of mycelial growth: isolate F. sulphureum ex SASA
Protocol: as §3, §4, §5, §6, §7

P. exigua = test: as above; conditions: Trial A; for Inhibition (%) of mycelial growth: isolate P. exigua 9.1
Protocol: as §3, §4, §5, §6, §7

[6] = isolate F. sambucinum L'gall 11, 25 μM in agar
[7] = isolate F. sambucinum L'gall 11, 250 μM in agar
[8] = isolate F. sambucinum L'gall 53, 25 μM in agar
[9] = isolate F. sambucinum L'gall 53, 250 μM in agar
[10] = isolate F. sambucinum ex SASA, 25 μM in agar
[11] = isolate F. sambucinum ex SASA, 250 μM in agar, vs 1% ethanol control
[12] = isolate Phytophthora erythroseptica BL2/08 P31, 25 μM in agar
[13] = isolate Phytophthora erythroseptica BL2/08 P31, 250 μM in agar
[14] = isolate Phytophthora erythroseptica Rooster Eire, 25 μM in agar
[15] = isolate Phytophthora erythroseptica Rooster Eire, 250 μM in agar
[16] = isolate F. coeruleum ex B7/06 T8, 25 μM in agar
[17] = isolate F. coeruleum ex B7/06 T8, 250 μM in agar
[18] = isolate F. coeruleum ex B16/08 P31, 25 μM in agar
[19] = isolate F. coeruleum ex B16/08 P31, 250 μM in agar

## CCCCCCCCCCCCCCCCCC(=O)O.c1ccc2[nH]c(-c3cscn3)nc2c1 [TBZ stearate, thiabendazolium stearate]
Phoma exigua; 25 μM in agar
  Inhibition (%) of mycelial growth: 95%
Phoma exigua; 250 μM in agar
  Inhibition (%) of mycelial growth: 99%
F. sambucinum; [6]
  Inhibition (%) of mycelial growth: 10%
F. sambucinum; [7]
  Inhibition (%) of mycelial growth: 82%
F. sambucinum; [8]
  Inhibition (%) of mycelial growth: 20%
F. sambucinum; [9]
  Inhibition (%) of mycelial growth: 82%
F. sambucinum; [10]
  Inhibition (%) of mycelial growth: 24%
F. sambucinum; [11]
  Inhibition (%) of mycelial growth: 89%
F. culmorum [1]; 25 μM in agar
  Inhibition (%) of mycelial growth: 100%
F. culmorum [1]; 250 μM in agar
  Inhibition (%) of mycelial growth: 100%
[2]; in words, Table 5
  activity against P. erythroseptica compared with thiabendazole alone: did not enhance the activity
[2]; [12]
  Inhibition (%) of mycelial growth: 10%
[2]; [13]
  Inhibition (%) of mycelial growth: 54%
[2]; [14]
  Inhibition (%) of mycelial growth: 11%
[2]; [15]
  Inhibition (%) of mycelial growth: 34%
Phoma foveata; 25 μM in agar
  Inhibition (%) of mycelial growth: 97%
Phoma foveata; 250 μM in agar
  Inhibition (%) of mycelial growth: 99%
F. coeruleum [3]; [16]
  Inhibition (%) of mycelial growth: 99%
F. coeruleum [3]; [17]
  Inhibition (%) of mycelial growth: 99%
F. coeruleum [3]; [18]
  Inhibition (%) of mycelial growth: 100%
F. coeruleum [3]; [19]
  Inhibition (%) of mycelial growth: 100%

## c1ccc2[nH]c(-c3cscn3)nc2c1 [TBZ stearate, thiabendazolium stearate]
F. coeruleum [4]; 25 μM in agar
  Inhibition (%) of mycelial growth: 98%
F. coeruleum [4]; 250 μM in agar
  Inhibition (%) of mycelial growth: 98%
P. erythroseptica; 25 μM in agar
  Inhibition (%) of mycelial growth: 2%
P. erythroseptica; 250 μM in agar
  Inhibition (%) of mycelial growth: 69%
P. foveata; 25 μM in agar
  Inhibition (%) of mycelial growth: 96%
P. foveata; 250 μM in agar
  Inhibition (%) of mycelial growth: 99%
F. culmorum [5]; 25 μM in agar
  Inhibition (%) of mycelial growth: 100%
F. culmorum [5]; 250 μM in agar
  Inhibition (%) of mycelial growth: 100%
F. sulphureum; 25 μM in agar
  Inhibition (%) of mycelial growth: 25%
F. sulphureum; 250 μM in agar
  Inhibition (%) of mycelial growth: 90%
P. exigua; 25 μM in agar
  Inhibition (%) of mycelial growth: 93%
P. exigua; 250 μM in agar
  Inhibition (%) of mycelial growth: 98%

## c1ccc2[nH]c(-c3cscn3)nc2c1 [TBZ, thiabendazole, reference compound]
F. coeruleum [4]; read-out: Inhibition (%) of mycelial growth, isolate F. coeruleum ex B7/06 T8, 25 μM in agar
  inhibition at 25 µM: 99%
F. coeruleum [4]; read-out: Inhibition (%) of mycelial growth, isolate F. coeruleum ex B7/06 T8, 250 μM in agar
  inhibition at 250 µM: 98%
P. erythroseptica; Phytophthora erythroseptica, read-out: Inhibition (%) of mycelial growth, isolate P. erythroseptica BL2/08 P31, 250 μM in agar
  inhibition at 250 µM: 76%
P. erythroseptica; 25 μM in agar
  Inhibition (%) of mycelial growth: 9%
Phoma exigua; 25 μM in agar, read-out: Inhibition (%) of mycelial growth
  inhibition at 25 µM: 95%
Phoma exigua; 250 μM in agar, read-out: Inhibition (%) of mycelial growth
  inhibition at 250 µM: 100%
F. sambucinum; [6]
  inhibition at 25 µM: 8%
F. sambucinum; [7]
  inhibition at 250 µM: 76%
F. sambucinum; [8]
  inhibition at 25 µM: 19%
F. sambucinum; [9]
  inhibition at 250 µM: 93%
F. sambucinum; [10]
  inhibition at 25 µM: 22%
F. sambucinum; [11]
  inhibition at 250 µM: 89%
F. culmorum [1]; Fusarium culmorum, 25 μM in agar, read-out: Inhibition (%) of mycelial growth
  inhibition at 25 µM: 100%
F. culmorum [1]; Fusarium culmorum, 250 μM in agar, read-out: Inhibition (%) of mycelial growth
  inhibition at 250 µM: 100%
[2]; [12]
  inhibition at 25 µM: 4%
[2]; [13]
  inhibition at 250 µM: 51%
[2]; [14]
  inhibition at 25 µM: 8%
[2]; [15]
  inhibition at 250 µM: 31%
Phoma foveata; Boeremia foveata, 25 μM in agar, read-out: Inhibition (%) of mycelial growth
  inhibition at 25 µM: 98%
Phoma foveata; Boeremia foveata, 250 μM in agar, read-out: Inhibition (%) of mycelial growth
  inhibition at 250 µM: 100%
F. coeruleum [3]; [16]
  inhibition at 25 µM: 99%
F. coeruleum [3]; [17]
  inhibition at 250 µM: 99%
F. coeruleum [3]; [18]
  inhibition at 25 µM: 100%
F. coeruleum [3]; [19]
  inhibition at 250 µM: 100%
P. foveata; Boeremia foveata, read-out: Inhibition (%) of mycelial growth, isolate P. foveata BL2 05 T3, 25 μM in agar
  inhibition at 25 µM: 98%
P. foveata; Boeremia foveata, read-out: Inhibition (%) of mycelial growth, isolate P. foveata BL2 05 T3, 250 μM in agar
  inhibition at 250 µM: 100%
F. culmorum [5]; Fusarium culmorum, 25 μM in agar
  inhibition at 25 µM: 100%
F. culmorum [5]; Fusarium culmorum, 250 μM in agar
  inhibition at 250 µM: 100%
F. sulphureum; read-out: Inhibition (%) of mycelial growth, isolate F. sulphureum ex SASA, 25 μM in agar
  inhibition at 25 µM: 17%
F. sulphureum; read-out: Inhibition (%) of mycelial growth, isolate F. sulphureum ex SASA, 250 μM in agar
  inhibition at 250 µM: 87%
P. exigua; Boeremia inoxydabilis, read-out: Inhibition (%) of mycelial growth, isolate P. exigua 9.1, 25 μM in agar
  inhibition at 25 µM: 92%
P. exigua; Boeremia inoxydabilis, read-out: Inhibition (%) of mycelial growth, isolate P. exigua 9.1, 250 μM in agar
  inhibition at 250 µM: 100%

## thiabendazolium docusate [TBZ docusate]
F. coeruleum [4]; 25 μM in agar
  Inhibition (%) of mycelial growth: 98%
F. coeruleum [4]; 250 μM in agar
  Inhibition (%) of mycelial growth: 98%
P. erythroseptica; 25 μM in agar
  Inhibition (%) of mycelial growth: 62%
P. erythroseptica; 250 μM in agar
  Inhibition (%) of mycelial growth: 100%
Phoma exigua; 25 μM in agar
  Inhibition (%) of mycelial growth: 94%
Phoma exigua; 250 μM in agar
  Inhibition (%) of mycelial growth: 99%
F. sambucinum; [6]
  Inhibition (%) of mycelial growth: 19%
F. sambucinum; [7]
  Inhibition (%) of mycelial growth: 83%
F. sambucinum; [8]
  Inhibition (%) of mycelial growth: 11%
F. sambucinum; [9]
  Inhibition (%) of mycelial growth: 68%
F. sambucinum; [10]
  Inhibition (%) of mycelial growth: 19%
F. sambucinum; [11]
  Inhibition (%) of mycelial growth: 96%
F. culmorum [1]; 25 μM in agar
  Inhibition (%) of mycelial growth: 100%
F. culmorum [1]; 250 μM in agar
  Inhibition (%) of mycelial growth: 100%
[2]; [12]
  Inhibition (%) of mycelial growth: 33%
[2]; [13]
  Inhibition (%) of mycelial growth: 97%
[2]; [14]
  Inhibition (%) of mycelial growth: 11%
[2]; [15]
  Inhibition (%) of mycelial growth: 91%
Phoma foveata; 25 μM in agar
  Inhibition (%) of mycelial growth: 95%
Phoma foveata; 250 μM in agar
  Inhibition (%) of mycelial growth: 99%
F. coeruleum [3]; [16]
  Inhibition (%) of mycelial growth: 99%
F. coeruleum [3]; [17]
  Inhibition (%) of mycelial growth: 99%
F. coeruleum [3]; [18]
  Inhibition (%) of mycelial growth: 100%
F. coeruleum [3]; [19]
  Inhibition (%) of mycelial growth: 100%
P. foveata; 25 μM in agar
  Inhibition (%) of mycelial growth: 95%
P. foveata; 250 μM in agar
  Inhibition (%) of mycelial growth: 99%
F. culmorum [5]; 25 μM in agar
  Inhibition (%) of mycelial growth: 100%
F. culmorum [5]; 250 μM in agar
  Inhibition (%) of mycelial growth: 100%
F. sulphureum; 25 μM in agar
  Inhibition (%) of mycelial growth: 27%
F. sulphureum; 250 μM in agar
  Inhibition (%) of mycelial growth: 97%
P. exigua; 25 μM in agar
  Inhibition (%) of mycelial growth: 90%
P. exigua; 250 μM in agar
  Inhibition (%) of mycelial growth: 98%
